Values after ≈ are worked out from the molar mass of the structure shown.
Key:
Type in all cases: functional
[1] = tested on: Candida tropicalis; experiment: Antifungal activity against Candida tropicalis after 24 hr by broth microdilution method
[2] = tested on: Pichia kudriavzevii; experiment: Antifungal activity against Pichia kudriavzevii after 24 hr by broth microdilution method
[3] = tested on: Klebsiella pneumoniae; experiment: Antibacterial activity against Klebsiella pneumoniae ATCC 700603 after 16 to 18 hr by broth microdilution method
[4] = tested on: Escherichia coli; experiment: Antibacterial activity against Escherichia coli ATCC 35218 after 16 to 18 hr by broth microdilution method
[5] = tested on: Klebsiella oxytoca; experiment: Antibacterial activity against Klebsiella oxytoca ATCC 13182 after 16 to 18 hr by broth microdilution method
[6] = tested on: Rhizomucor; experiment: Antifungal activity against Rhizomucor spp. after 24 hr by broth microdilution method
[7] = tested on: Sporothrix schenckii; experiment: Antifungal activity against Sporothrix schenckii after 24 hr by broth microdilution method
[8] = tested on: Staphylococcus xylosus; experiment: Antibacterial activity against Staphylococcus xylosus ATCC 35033 after 16 to 18 hr by broth microdilution method
[9] = tested on: Pichia kudriavzevii; experiment: Antifungal activity against fluconazole-resistant Pichia kudriavzevii after 24 hr by broth microdilution method
[10] = tested on: Candida parapsilosis; experiment: Antifungal activity against fluconazole-resistant Candida parapsilosis after 24 hr by broth microdilution method; settings: Lodderomyces parapsilosis
[11] = tested on: Fusarium sp.; experiment: Antifungal activity against Fusarium sp. after 24 hr by broth microdilution method
[12] = tested on: Candida albicans; experiment: Antifungal activity against Candida albicans ATCC 90028 after 24 hr by broth microdilution method; settings: ATCC 90028, 24 h
[13] = tested on: Bacillus subtilis; experiment: Antibacterial activity against Bacillus subtilis ATCC 6051 after 16 to 18 hr by broth microdilution method
[14] = tested on: Scopulariopsis; experiment: Antifungal activity against Scopulariopsis spp. after 24 hr by broth microdilution method
[15] = tested on: Elizabethkingia meningoseptica; experiment: Antibacterial activity against Elizabethkingia meningoseptica ATCC 13253 after 16 to 18 hr by broth microdilution method
[16] = tested on: Staphylococcus aureus; experiment: Antibacterial activity against Staphylococcus aureus ATCC 43300 after 16 to 18 hr by broth microdilution method
[17] = tested on: Trichosporon asahii; experiment: Antifungal activity against Trichosporon asahii after 24 hr by broth microdilution method
[18] = tested on: Prescottella equi; experiment: Antibacterial activity against Rhodococcus equi ATCC 6939 after 16 to 18 hr by broth microdilution method; settings: Rhodococcus (subgen. Prescottella) equi
[19] = tested on: Aspergillus fumigatus; experiment: Antifungal activity against Aspergillus fumigatus after 24 hr by broth microdilution method
[20] = tested on: Penicillium sp.; experiment: Antifungal activity against Penicillium sp. after 24 hr by broth microdilution method
[21] = tested on: Aspergillus flavus; experiment: Antifungal activity against Aspergillus flavus after 24 hr by broth microdilution method
[22] = tested on: Aspergillus flavus; experiment: Antifungal activity against Aspergillus flavus MRC 2527 after 24 hr by broth microdilution method; settings: MRC 2527, 24 h
[23] = tested on: Cyberlindnera jadinii; experiment: Antifungal activity against Cyberlindnera jadinii after 24 hr by broth microdilution method; settings: Williopsis jadinii
[24] = tested on: Candida parapsilosis; experiment: Antifungal activity against Candida parapsilosis ATCC 22019 after 24 hr by broth microdilution method; settings: Lodderomyces parapsilosis, ATCC 22019, 24 h
[25] = tested on: Candida albicans; experiment: Antifungal activity against fluconazole-susceptible Candida albicans
[26] = tested on: Candida albicans; experiment: Antifungal activity against fluconazole-resistant Candida albicans

Row | SMILES | MIC [1] [µg/mL] | MIC [2] [µg/mL] | MIC [3] [µg/mL] | MIC [4] [µg/mL] | MIC [5] [µg/mL] | MIC [6] [µg/mL] | MIC [7] [µg/mL] | MIC [8] [µg/mL] | MIC [9] [µg/mL] | MIC [10] [µg/mL] | MIC [11] [µg/mL] | MIC [12] [µg/mL] | MIC [13] [µg/mL] | MIC [14] [µg/mL] | MIC [15] [µg/mL] | MIC [16] [µg/mL] | MIC [17] [µg/mL] | MIC [18] [µg/mL] | MIC [23] [µg/mL] | MIC [24] [µg/mL] | other results
1 | CC(C)CCCC(C)CCNCCNC1C2CC3CC(C2)CC1C3.Cl (stereo not drawn) | 7.8 | 7.8 | 125 | 31.2 | 62.5 | 7.8 | 0.49 | 15.6 | 0.98 | 7.8 | 7.8 | 3.9 | 15.6 | 1.95 | 31.2 | 31.2 | 7.8 | 7.8 | 1.95 | 7.8 | MIC [19]: 7.8 µg/mL; MIC [20]: 3.9 µg/mL; MIC [21]: 31.2 µg/mL; MIC [22]: 25 µg/mL
2 | CC(C)=CCC/C(C)=C/CC/C(C)=C/CNCCNC1C2CC3CC(C2)CC1C3.Cl (stereo not drawn) | 3.9 | 3.9 | 125 | 7.8 | 15.6 | 7.8 | 0.98 | 7.8 | 1.95 | 3.9 | 7.8 | 7.8 | 7.8 | 3.9 | 15.6 | 15.6 | 3.9 | 7.8 | 1.95 | 7.8 | MIC [19]: 7.8 µg/mL; MIC [20]: 3.9 µg/mL; MIC [21]: 15.6 µg/mL; MIC [22]: 25 µg/mL
3 | CC(C)CCCC(C)CCCC(C)CCNCCNC1C2CC3CC(C2)CC1C3.Cl (stereo not drawn) | 6.25 | 6.25 | 250 | 7.8 | 31.2 | 12.5 | 1.56 | 3.9 | 3.13 | 6.25 | 12.5 | 6.25 | 3.9 | 3.13 | 7.8 | 7.8 | 6.25 | 3.9 | 3.13 | 6.25 | MIC [19]: 12.5 µg/mL; MIC [20]: 6.25 µg/mL; MIC [21]: 25 µg/mL; MIC [22]: > 100 µg/mL
4 | CC(C)=CCC/C(C)=C/CNCCNC12CC3CC(CC(C3)C1)C2.Cl | 62.5 | 125 | 1000 | 500 | 500 | 125 | 3.9 | 250 | 15.6 | 125 | 250 | 31.2 | 125 | 125 | 500 | 500 | 125 | 125 | 31.2 | 250 | MIC [19]: 125 µg/mL; MIC [20]: 62.5 µg/mL; MIC [21]: > 500 µg/mL; MIC [22]: > 100 µg/mL
5 | CC(C)CCCC(C)CCNCCNC12CC3CC(CC(C3)C1)C2.Cl (stereo not drawn) | 3.9 | 15.6 | 62.5 | 31.2 | 62.5 | 7.8 | 0.49 | 15.6 | 0.98 | 7.8 | 7.8 | 3.9 | 15.6 | 1.95 | 31.2 | 62.5 | 7.8 | 15.6 | 1.95 | 15.6 | MIC [19]: 15.6 µg/mL; MIC [20]: 7.8 µg/mL; MIC [21]: 31.2 µg/mL; MIC [22]: 25 µg/mL
6 | CC(C)=CCC/C(C)=C/CNCCNC1C2CC3CC(C2)CC1C3.Cl (stereo not drawn) | 32.5 | 250 | 1000 | 500 | 500 | 125 | 1.95 | 500 | 15.6 | 250 | 125 | 125 | 500 | 62.5 | 500 | 1000 | 125 | 125 | 15.6 | 250 | MIC [25]: 4 µg/mL; MIC [26]: 4 µg/mL; MIC [19]: 250 µg/mL; MIC [20]: 125 µg/mL; MIC [21]: 500 µg/mL; MIC [22]: > 100 µg/mL
7 | C[C@@H]1[C@H](O)[C@@H](C)/C=C/C=C/C=C/C=C/C=C/C=C/C=C/[C@H](O[C@@H]2O[C@H](C)[C@@H](O)[C@H](N)[C@@H]2O)C[C@@H]2O[C@](O)(C[C@@H](O)C[C@@H](O)[C@H](O)CC[C@@H](O)C[C@@H](O)CC(=O)O[C@H]1C)C[C@H](O)[C@H]2C(=O)O [AMPHOTERICIN B] | – | – | – | – | – | 0.31 (≈ 0.335 µM) | 5 (≈ 5.41 µM) | – | – | 0.02 (≈ 0.0216 µM) | 2.5 (≈ 2.71 µM) | 0.62 (≈ 0.671 µM) | – | 10 (≈ 10.8 µM) | – | – | 0.31 (≈ 0.335 µM) | – | 0.31 (≈ 0.335 µM) | 0.04 (≈ 0.0433 µM) | –
8 | NC[C@@H]1O[C@H](O[C@H]2[C@@H](O)[C@H](O[C@@H]3[C@@H](O)[C@H](N)C[C@H](N)[C@H]3O[C@H]3O[C@H](CN)[C@@H](O)[C@H](O)[C@H]3N)O[C@@H]2CO)[C@H](N)[C@@H](O)[C@@H]1O [FRAMYCETIN] | – | – | 6.25 (≈ 10.2 µM) | 3.13 (≈ 5.09 µM) | 6.25 (≈ 10.2 µM) | – | – | 0.2 (≈ 0.325 µM) | – | – | – | – | 0.78 (≈ 1.27 µM) | – | 12.5 (≈ 20.3 µM) | 25 (≈ 40.7 µM) | – | 1.56 (≈ 2.54 µM) | – | – | –

— ChEMBL document CHEMBL3046423, “SQ109 analogues as potential antimicrobial candidates” (2011)
